According to patent US20240100201A1, “Labeling precursors and radiotracers for nuclear medicine diagnosis and therapy of prostate cancer-induced bone metastases” (SCV-SpezialChemikalienVertrieb GmbH, priority 2021, published 2024):
Like-named read-outs stand apart in the source and are kept apart here.

Key:
[1] = target: T1, PSMA (Homo sapiens, UniProt Q04609); experiment: cell-based competitive assay on LNCaP cells (PSMA affinity, IC50); type: binding; conditions: 45 min, 68Ga-labeled PSMA reference compound
T1 construct: PSMA-positive LNCaP cells from Sigma-Aldrich; host or cells: LNCaP cells
Description: Using a cell-based assay, the affinity of the KuE targeting vector with a lipophilic linker—analogously to PSMA-617—and with a squaric acid linker was examined using the compounds NH2.DOTAGA.KuE-617 and NH2.DOTAGA.QS.KuE (structural formulae (8) and (10) in scheme 32).
For the assay, LNCaP cells were pipetted into multiwell plates (Merck Millipore Multiscreen™). To the compounds to be analyzed, in increasing concentrations, was in each case added a defined amount or concentration of the reference compound ^68Ga[Ga]PSMA-with known Kdvalue, and the mixture was incubated in the wells with the LNCaP cells for 45 min. After washing several times, the cell-bound activity was determined.
In order to determine non-specific binding, an excess of the PSMA inhibitor 2-PMPA (2-(phosphonomethyl)[…]) was additionally added to all compounds, and they were subjected to the same LNCaP assay-as described above.

[2] = target: T1, PSMA; experiment: competitive radioligand assay on PSMA-positive LNCaP cells (Ki); type: binding
Description: By means of comparative radioligand assays, binding affinity for PSMA is determined for the radiotracer or labeling precursor DOTA.L-Lys(SA.Pam)KuE-617 and reference structures. The Ki-value for [^natLu]Lu-DOTA.L-Lys(SA.Pam)KuE-617 corresponds roughly to the value for the labeling precursor DOTA.L-Lys(SA.Pam) KuE-617. […] Compared to DOTA.L-Lys.KuE-617—corresponding to structural formula (14) in scheme 31—the Ki of [^natLu]Lu-DOTA.L-Lys(SA.Pam)KuE-617 is greater by a factor of about 2. It can be seen from this that the squaric acid-pamidronate group reduces affinity for PSMA.
Non-active (cold) [natLu]Lu complexes are prepared by shaking a solution containing the labeling precursor DOTA-L-Lys(SA.Pam)-KuE-617 (371 μl, 1 mg/ml, 250 nmol) with LuCl3 (129 μl, 1 mg/ml, 375 nmol, metal to labeling precursor ratio 1.5:1) in 1 M ammonium acetate buffer at 95° C. for 2 hours. Complex formation is monitored by ESI-LC/MS.
PSMA binding affinity is determined by the competitive radioligand assay described by Benešová et al. (Benešová, M.; Schaefer, M.; Bauder-Wüst, U.; Afshar-Oromieh, A.; Kratochwil, C.; Mier, W.; Haberkorn, U.; Kopka, K.; Eder, M. Preclinical Evaluation of a Tailor-Made DOTA-Conjugated PSMA Inhibitor with Optimized Linker Moiety for Imaging and Endoradiotherapy of Prostate Cancer. J. Nucl. Med. 2015, 56 (6), 914-920.). For this purpose, PSMA-positive LNCaP cells from Sigma-Aldrich in RPMI 1640 (Thermo Fisher Scientific) supplemented with 10% fetal bovine serum (Thermo Fisher Scientific), 100 μg/ml streptomycin and 100 units/ml penicillin are cultured at 37° C. in 5% CO2. The LNCaP cells are incubated with increasing concentrations of solutions containing the labeling precursors in the presence of 0.75 nM [^68Ga]Ga-PSMA-10 for 45 min. Free radioactivity is removed by several washes with ice-cold PBS. The samples obtained are measured in a y counter (2480 WIZARD2 Automatic Gamma Counter, PerkinElmer). The measurement data are evaluated in GraphPad Prism 9 using non-linear regression.

[3] = adsorption isotherms on hydroxyapatite by the method of Langmuir and Freundlich; type: binding; conditions: Langmuir-Freundlich
Description: For this purpose, the adsorption therms are determined by the method of Langmuir and Freundlich.
For comparison, schemes 23 and 24 show conjugates of the chelator NODAGA with squaric acid pamidronate (NODAGA.QS.Pam) and NODAGA with zoledronate (NODAGA.Zol), and also the respective coefficients of adsorption KLF, measured by the method of Langmuir and Freundlich.

[4] = lipophilicity, partition in n-octanol and PBS; type: physicochemical; conditions: pH 7.4
Description: The lipophilicity of […] is determined by determining the partition equilibrium of the compound in a mixture of n-octanol and PBS.
LogD7.4 of the respective compound is determined via the partition coefficient in n-octanol and PBS. The labeling solution is adjusted to pH 7.4 and 5 MBq is diluted in 700 μl of n-octanol and 700 μl of PBS. It is shaken at 1500 rpm for 2 min and then centrifuged. 400 μl of the n-octanol phase and 400 μl of the PBS phase were each transferred to a new Eppendorf tube. 3-6 μl is then pipetted onto a TLC plate and analyzed using a phosphor imager. The logD7.4 is calculated based on the ratio of the activities of the two phases. The measurement of each phase is also repeated twice more with the sample of higher activity, such that three logD7.4 values can be obtained and an average can be calculated.

[5] = affinity for hydroxyapatite (HAP) of 177Lu-labeled compounds; type: binding; conditions: ordinary HAP, 1 h room temperature
Description: Calcium-containing crystalline hydroxyapatite is an essential component of mammalian bones and is suitable as a model substrate for the in vitro study of bisphosphonate accumulation in healthy bone tissue and bone metastases. […] In contrast, […] is found to have an HAP-enriched fraction of only 1.2%. In order to determine selectivity, accumulation on HAP previously treated with excess pamidronate was additionally measured.
Hydroxyapatite (20 mg) is incubated in saline (1 ml) for 24 h. 50 μl of the radiotracer [^177Lu]Lu-DOTA-L-Lys(SA.Pam)-KuE-617 (5 MBq) or [^177Lu]Lu-PSMA-617 (5 MBq) is added. Each suspension is vortexed with a vortex mixer for 20 s and incubated at room temperature for 1 h. […] The radioactivity of the liquids and HAP-containing supernatants obtained is measured in each case with a curiemeter (Isomed 2010 activimeter, MED Nuclear-Medizintechnik Dresden GmbH). The binding of [^177Lu]Lu-DOTA-L-Lys(SA.Pam)-KuE-617 and [^177Lu]Lu-PSMA-617 is determined as a percentage of the activity absorbed on HAP. As a reference, the HAP binding of free Lu-177 is measured in an analogous manner. […] For this purpose, HAP (20 mg) in saline solution (1 ml) is incubated with pamidronate (100 mg) and the respective activities of [^177Lu]Lu-DOTA-L-Lys(SA.Pam)-KuE-617 and free Lu-177 are determined.

[6] = LNCaP cells, 0.75 nM [68Ga]Ga-PSMA-10, 45 min, read-out: PSMA Ki

T1 sequence (Q04609 whole entry): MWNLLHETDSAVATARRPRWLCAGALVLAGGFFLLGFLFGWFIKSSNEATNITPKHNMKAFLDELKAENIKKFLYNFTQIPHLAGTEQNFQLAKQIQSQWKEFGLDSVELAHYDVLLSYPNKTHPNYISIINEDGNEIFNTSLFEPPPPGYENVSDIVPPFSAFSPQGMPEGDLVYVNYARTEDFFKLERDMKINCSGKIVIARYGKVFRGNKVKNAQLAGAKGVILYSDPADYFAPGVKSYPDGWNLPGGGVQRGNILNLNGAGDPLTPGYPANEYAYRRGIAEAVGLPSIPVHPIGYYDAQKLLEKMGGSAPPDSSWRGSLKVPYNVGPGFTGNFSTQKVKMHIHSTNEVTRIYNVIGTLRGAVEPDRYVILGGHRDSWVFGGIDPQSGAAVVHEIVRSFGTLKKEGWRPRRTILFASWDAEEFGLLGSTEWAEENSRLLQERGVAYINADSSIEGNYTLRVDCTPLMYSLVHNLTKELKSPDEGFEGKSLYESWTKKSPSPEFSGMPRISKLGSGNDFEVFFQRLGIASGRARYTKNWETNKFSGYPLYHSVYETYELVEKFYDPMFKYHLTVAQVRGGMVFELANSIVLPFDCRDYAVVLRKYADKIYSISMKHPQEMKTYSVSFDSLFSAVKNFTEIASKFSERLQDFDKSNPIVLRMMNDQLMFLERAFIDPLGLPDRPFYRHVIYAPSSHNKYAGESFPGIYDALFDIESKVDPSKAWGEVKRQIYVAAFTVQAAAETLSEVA

`NCCN1CCN(CC(=O)O)CCN(C(CCC(=O)NCCNc2c(NCCCCC(NC(=O)NC(CCC(=O)O)C(=O)O)C(=O)O)c(=O)c2=O)C(=O)O)CCN(CC(=O)O)CC1` (stereo not drawn) [NH2.DOTAGA.QS.KuE] showed an IC50 [1] of 20.2 ± 3.5 nM.

In the case of `NCCN1CCN(CC(=O)O)CCN(C(CCC(=O)NCC2CCC(C(=O)NC(Cc3ccc4ccccc4c3)C(=O)NCCCCC(NC(=O)NC(CCC(=O)O)C(=O)O)C(=O)O)CC2)C(=O)O)CCN(CC(=O)O)CC1` (stereo not drawn) [NH2.DOTAGA.KuE-617], the IC50 [1] is reported as 20.6 ± 3.4 nM.

Molecule `O=C(O)CCC(NC(=O)NC(CCCCNC(=O)C(Cc1ccc2ccccc2c1)NC(=O)C1CCC(CNC(=O)C(CCCCNc2c(NCCC(O)(P(=O)(O)O)P(=O)(O)O)c(=O)c2=O)NC(=O)CN2CCN(CC(=O)O)CCN(CC(=O)O)CCN(CC(=O)O)CC2)CC1)C(=O)O)C(=O)O` [DOTA.L-Lys(SA.Pam)KuE-617] has a Ki [2] of 53 ± 4 nM.

For `O=C(O)CCC(NC(=O)NC(CCCCNC(=O)C(Cc1ccc2ccccc2c1)NC(=O)C1CCC(CNC(=O)CCC(C(=O)O)N2CCN(CC(=O)O)CCN(CCNc3c(NCCC(O)(P(=O)(O)O)P(=O)(O)O)c(=O)c3=O)CCN(CC(=O)O)CC2)CC1)C(=O)O)C(=O)O` (stereo not drawn) [Pam.SA.DOTAGA.KuE-617], the IC50 [1] was 49.8 ± 10 nM.

With `O=C(O)CN1CCN(CC(=O)O)CCN(C(CCC(=O)NCCNc2c(NCCC(O)(P(=O)(O)O)P(=O)(O)O)c(=O)c2=O)C(=O)O)CC1` (stereo not drawn) [NODAGA.QS.Pam] the “coefficient of adsorption KLF compared with NODAGA.Zol” value [3] was “about three times greater”.

In the case of `NCCCCC(NC(=O)CN1CCN(CC(=O)O)CCN(CC(=O)O)CCN(CC(=O)O)CC1)C(=O)NCC1CCC(C(=O)NC(Cc2ccc3ccccc3c2)C(=O)NCCCCC(NC(=O)NC(CCC(=O)O)C(=O)O)C(=O)O)CC1` [DOTA.L-Lys.KuE-617], the Ki [2, 6] is reported as 20 ± 3 nM.

With [^177Lu]Lu-PSMA-617 the “LogD7,4 (n-octanol/PBS)” value [4] was −2.2 ± 0.20 and the “proportion bound to HAP” value [5] was 1.2%.

In the case of `O=C(O)CCC(NC(=O)NC(CCCCNC(=O)C(Cc1ccc2ccccc2c1)NC(=O)C1CCC(CNC(=O)CN2CCN(CC(=O)O)CCN(CC(=O)O)CCN(CC(=O)O)CC2)CC1)C(=O)O)C(=O)O` (stereo not drawn) [PSMA-617, reference compound], the Ki [2, 6] is reported as 7 ± 1 nM.
